Laboratory results: patent publication US20190117994A1, “METHODS USEFUL FOR REMODELING MAXILLOFACIAL BONE USING LIGHT THERAPY AND A FUNCTIONAL APPLIANCE” (Biolux Research Ltd., priority 2010, published 2019)

Columns and labels:
[1] = test system: teeth and alveolar bone of an adult patient; test: Example 3: orthodontic treatment with daily light and oral vitamin D3 supplementation; assay type: in vivo; conditions: passive (retention) phase, 2000 IU to 12,000 IU per day oral vitamin D3, light once per week at about 625 nm
Experimental: An adult patient is tested for Vitamin D3 blood serum levels at the same time as their routine orthodontic examination and records appointment. The patient's diagnosis is Class I mild crowding with 4 mm of crowding on the upper arch and 4 mm on the lower arch. An orthodontic treatment plan is formulated to include the installation of a fixed orthodontic appliance with some mild expansion of the upper and lower arches.
The patient self-administers oral oil-based vitamin D3 capsules of 6000 IU per day for 3 months to increase their vitamin D3 serum levels. Laboratory serum testing is optionally performed again after 3 months of vitamin D3 supplementation. The patient maintains or adjusts their oral dose of vitamin D3 based on their subsequent lab results.
Orthodontic treatment is started either after the 3 month period or anytime prior. The patient has conventional fixed orthodontic brackets, and bands placed on their teeth with an initial 0.016 inch NiTi wire tied in place with silcone ligatures. […]
At a passive state of orthodontic treatment, i.e., retention phase, a fixed retention orthodontic appliance is installed on the patient's teeth. […] The dosage can be determined based on vitamin D blood serum levels which can be measured periodically to determine dosing. […]

[2] = daily oral supplement of 2,000 IU to 6,000 IU in adults, within 3 months; cited from earlier work

| Compound | alveolar bone density around the teeth [1] | blood levels of vitamin D [2] |
| --- | --- | --- |
| C=C1CC[C@H](O)C/C1=C/C=C1\CCC[C@]2(C)[C@@H]([C@H](C)CCCC(C)C)CC[C@@H]12 [vitamin D3] | increased | – |
| vitamin D | – | 40 ng/mL |
